Values belong to the compound of their own block, whether it stands above or below them.
Columns and labels:
[1] = biological target: T1, baculovirus-expressed human trkA cytoplasmic domain (Homo sapiens, UniProt P04629); assay: Inhibition of trkA tyrosine kinase activity (ELISA-based assay); type: biochemical; settings: for IC50: 40 μM ATP
T1 construct: baculovirus-expressed human trkA cytoplasmic domain; made in house; host or cells: baculovirus expression system
Procedure: Selected cyclic substituted fused pyrrolocarbazole and isoindolone compounds were tested for their ability to inhibit the kinase activity of baculovirus-expressed human trkA cytoplasmic domain using an ELISA-based assay as previously described (Angeles et al., Anal. Biochem. 236: 49-55, 1996). Briefly, the 96-well microtiter plate was coated with substrate solution (recombinant human phospholipase C-γ1/glutathione S-transferase fusion protein (Rotin et al., EMBO J., 11: 559-567, 1992). Inhibition studies were performed in 100 μl assay mixtures containing 50 mM Hepes, pH 7.4, 40 μM ATP, 10 mM MnCl2, 0.1% BSA, 2% DMSO, and various concentrations of inhibitor. The reaction was initiated by addition of trkA kinase and allowed to proceed for 15 minutes at 37° C. An antibody to phosphotyrosine (UBI) was then added, followed by a secondary enzyme-conjugated antibody, alkaline phosphatase-labelled goat antII-mouse IgG (Bio-Rad). The activity of the bound enzyme was measured via an amplified detection system (Gibco-BRL). Inhibition data were analyzed using the sigimoidal dose-response (variable slope) equation in GraphPad Prism.

[2] = biological target: T2, VEGF receptor (human flk-1, KDR, VEGFR2) kinase domain (Homo sapiens, UniProt P35968); assay: Inhibition of vascular endothelial growth factor receptor kinase activity (ELISA); type: biochemical; settings: for VEGF receptor kinase activity % Inh. @ 300 nM (values in parentheses) / inhibition at 0.3 µM: 300 nM compound; for IC50: 40 μM ATP; for inhibition at 0.3 µM: read-out: VEGF receptor kinase activity % Inh. @ 300 nM (values in parentheses)
T2 construct: VEGF receptor (human flk-1, KDR, VEGFR2) kinase domain; made in house; host or cells: baculovirus expression system
T2 sequence (P35968 834-1162 limits assumed): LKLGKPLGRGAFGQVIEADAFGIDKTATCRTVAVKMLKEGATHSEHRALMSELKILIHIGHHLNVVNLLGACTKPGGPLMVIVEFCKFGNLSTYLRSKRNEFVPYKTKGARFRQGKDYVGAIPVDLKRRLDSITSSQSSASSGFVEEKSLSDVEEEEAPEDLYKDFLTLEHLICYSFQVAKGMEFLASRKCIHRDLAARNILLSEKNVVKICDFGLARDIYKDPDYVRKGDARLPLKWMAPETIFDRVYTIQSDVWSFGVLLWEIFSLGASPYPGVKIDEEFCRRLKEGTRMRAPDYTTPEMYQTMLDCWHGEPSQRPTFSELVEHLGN
Procedure: Cyclic substituted fused pyrrolocarbazole and isoindolone compounds were examined for their inhibitory effects on the kinase activity of baculovirus-expressed VEGF receptor (human flk-1, KDR, VEGFR2) kinase domain using the procedure described for the trkA kinase ELISA assay described above. The kinase reaction mixture, consisting of 50 mM Hepes, pH 7.4, 40 μM ATP, 10 mM MnCl2, 0.1% BSA, 2% DMSO, and various concentrations of inhibitor, was transferred to PLC-γ/GST-coated plates. VEGFR kinase was added and the reaction was allowed to proceed for 15 min. at 37 C. Detection of phosphorylated product was accomplished by addition of antII-phosphotyrosine antibody (UBI). A secondary enzymeconjugated antibody was delivered to capture the antibody-phosphorylated PLC-γ/GST complex. The activity of the bound enzyme was measured via an amplified detection system (Gibco-BRL). Inhibition data were analyzed using the sigmoidal dose-response (variable slope) equation in GraphPad Prism.

[3] = biological target: T3, trkA (NIH3T3 cells transfected with trkA) (Homo sapiens, UniProt P04629); assay: Inhibition of NGF-stimulated trk phosphorylation in a whole cell preparation; type: cell-based; settings: NGF 10 ng/ml; for Cell Score @ 100 nM (percent decrease in trk protein band): 100 nM compound; for Cell Score @ 1 uM (percent decrease in trk protein band): 1 uM compound
T3 construct: expressed in transfected cells; host or cells: NIH3T3
T3 sequence (P04629 33-796, species assumed): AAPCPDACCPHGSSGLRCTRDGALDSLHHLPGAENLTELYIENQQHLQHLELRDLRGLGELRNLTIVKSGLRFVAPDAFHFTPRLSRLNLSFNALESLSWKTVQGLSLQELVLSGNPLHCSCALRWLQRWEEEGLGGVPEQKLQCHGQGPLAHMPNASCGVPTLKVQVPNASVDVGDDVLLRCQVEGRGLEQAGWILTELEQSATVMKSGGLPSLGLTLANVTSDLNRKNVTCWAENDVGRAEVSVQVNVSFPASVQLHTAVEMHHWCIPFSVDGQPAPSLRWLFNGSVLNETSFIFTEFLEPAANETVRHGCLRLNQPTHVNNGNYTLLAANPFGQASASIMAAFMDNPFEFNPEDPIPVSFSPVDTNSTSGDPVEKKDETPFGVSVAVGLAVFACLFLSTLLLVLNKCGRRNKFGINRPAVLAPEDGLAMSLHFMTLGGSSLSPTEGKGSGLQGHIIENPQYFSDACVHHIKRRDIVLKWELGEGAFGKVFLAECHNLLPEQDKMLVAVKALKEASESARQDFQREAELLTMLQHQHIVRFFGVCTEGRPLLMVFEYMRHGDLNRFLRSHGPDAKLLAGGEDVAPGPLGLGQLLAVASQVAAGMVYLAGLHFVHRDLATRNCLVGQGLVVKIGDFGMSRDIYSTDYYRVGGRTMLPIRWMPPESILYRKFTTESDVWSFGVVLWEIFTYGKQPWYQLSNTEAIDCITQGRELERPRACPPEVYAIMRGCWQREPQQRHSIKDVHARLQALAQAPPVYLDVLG
Procedure: NIH3T3 cells transfected with trkA were grown in 100 mm dishes. Subconfluent cells were serum-starved by replacing media with serum-free 0.05% BSA-DMEM containing compound (100 nM and 1 μM) or DMSO (added to controls) for one hour at 37° C. NGF (Harlan/Bioproducts for Science) was then added to the cells at a concentration of 10 ng/ml for 5 minutes. Cells were lysed in buffer containing detergent and protease inhibitors. Clarified cell lysates were normalized to protein using BCA method and immunoprecipitated with antII-trk antibody. Polyclonal antII-trk antibody was prepared against a peptide corresponding to the 14 amino acids at the carboxy terminus of trk (Martin-Zanca et al., Mol. Cell. Biol. 9: 24-33, 1989). The immune complexes were collected on Protein A Sepharose beads (Sigma Chem. Co., St. Lois, Mo.), separated by SDS polyacrylamide gel electrophoresis (SDS-PAGE), and transferred to a polyvinylidene difluoride (PVDF) membrane. The membrane was immunoblotted with antII-phosphotyrosine antibody (UBI), followed by incubation with horseradish peroxidase coupled goat antII-mouse IgG (Bio-Rad Laboratories, Hercules, Calif.). Phosphorylated proteins were visualized using ECL (Arnersham Life Science, Inc., Arlington Heights, Ill.). The area of the trk protein band was measured and compared to NGF-stimulated control. The inhibition scoring system used, based on percent decrease in trk protein band, was as follows: 0=no decrease; 1=1-25%; 2=26-49%; 3=50-75%; 4=76-100%.

T1 sequence (P04629 440-796 limits assumed): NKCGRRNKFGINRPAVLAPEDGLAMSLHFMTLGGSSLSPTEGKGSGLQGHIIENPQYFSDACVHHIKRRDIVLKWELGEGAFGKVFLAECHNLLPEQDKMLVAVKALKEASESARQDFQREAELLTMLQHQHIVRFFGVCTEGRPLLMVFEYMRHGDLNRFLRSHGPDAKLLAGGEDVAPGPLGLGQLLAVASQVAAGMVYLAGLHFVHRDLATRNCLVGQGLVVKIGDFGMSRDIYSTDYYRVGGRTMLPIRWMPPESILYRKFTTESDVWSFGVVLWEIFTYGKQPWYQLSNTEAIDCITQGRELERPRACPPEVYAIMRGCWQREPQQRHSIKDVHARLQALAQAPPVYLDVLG

SMILES: CCN1CCCC(O)(C2c3ccccc3-c3c4c(c5c([nH]c6ccccc65)c32)CNC4=O)C1 (mixture of isomers) [II-16]
trkA kinase activity % Inh. @ 300 nM (values in parentheses) ([1]; 300 nM compound): (38) %

SMILES: C=C1COC(C)(C2c3ccccc3-c3c4c(c5c([nH]c6ccccc65)c32)CNC4=O)C1 (mixture of isomers) [II-25]
trkA kinase activity % Inh. @ 300 nM (values in parentheses) ([1]; 300 nM compound): (27) %

SMILES: COCCOCOCC1(C2c3ccccc3-c3c4c(c5c([nH]c6ccccc65)c32)CNC4=O)CCC(=O)O1 (mixture of isomers) [II-31]
IC50 [1]: 173 nM

SMILES: CCC1(C2(CO)CCCO2)c2ccccc2-c2c3c(c4c([nH]c5ccccc54)c21)CNC3=O (mixture of isomers) [II-34]
VEGF receptor kinase activity % Inh. @ 300 nM (values in parentheses) [2]: (52) % | trkA kinase activity % Inh. @ 300 nM (values in parentheses) ([1]; 300 nM compound): (38) %

SMILES: O=C1NCc2c1c1c(c3[nH]c4ccccc4c23)C(C2OCCC2O)c2ccccc2-1 (mixture of isomers) [II-43]
IC50 [1]: 110 nM

SMILES: CC1(C)OC2CC(O)(C3c4ccccc4-c4c5c(c6c([nH]c7ccccc76)c43)CNC5=O)OC2O1 (mixture of isomers) [II-48]
trkA kinase activity % Inh. @ 300 nM (values in parentheses) ([1]; 300 nM compound): (46) %

SMILES: CCOC1COCC(C)(C2c3ccccc3-c3c4c(c5c([nH]c6ccccc65)c32)CNC4=O)O1 (mixture of isomers) [II-51bc]
VEGF receptor kinase activity % Inh. @ 300 nM (values in parentheses) ([2]; 0.3 µM): (62) % | trkA kinase activity % Inh. @ 300 nM (values in parentheses) ([1]; 300 nM compound, 0.3 µM): (56) %

IC50 [1]: 92 nM
SMILES: O=C1NCc2c1c1c(c3c2c2ccccc2n3CC2CO2)Cc2ccccc2-1 (racemic) [II-01a]

IC50 [2]: 380 nM
SMILES: O=C1NCc2c1c1c(c3c2c2cc(Br)ccc2n3CC2CO2)Cc2ccccc2-1 (racemic) [II-57]

SMILES: CCOCc1ccc2c(c1)c1c3c(c4c(c1n2CC1CO1)Cc1ccccc1-4)C(=O)NC3 (racemic) [II-58]
trkA kinase activity % Inh. @ 300 nM (values in parentheses) ([1]; 300 nM compound): (23) %

SMILES: CC1(C2c3ccccc3-c3c4c(c5c([nH]c6ccccc65)c32)CNC4=O)CCCO1 (single isomer, unassigned) [II-30a]
inhibition at 0.3 µM [2]: 59% | IC50 [1]: 214 nM

SMILES: CC1(C2c3ccccc3-c3c4c(c5c([nH]c6ccccc65)c32)CNC4=O)CCCO1 (single isomer, unassigned) [II-30b]
trkA kinase activity % Inh. @ 300 nM (values in parentheses) ([1]; 300 nM compound): (32) %

SMILES: CCOC1COCC(C)(C2c3ccccc3-c3c4c(c5c([nH]c6ccccc65)c32)CNC4=O)O1 (single isomer, unassigned) [II-51d]
VEGF receptor kinase activity % Inh. @ 300 nM (values in parentheses) ([2]; 0.3 µM): (48) % | trkA kinase activity % Inh. @ 300 nM (values in parentheses) ([1]; 300 nM compound, 0.3 µM): (58) %

SMILES: CCOC1CCC(CO)(C2c3cc(OC)ccc3-c3c4c(c5c([nH]c6ccccc65)c32)CNC4=O)O1 (single isomer, unassigned) [II-54]
IC50 [2]: 122 nM | Cell Score @ 100 nM (percent decrease in trk protein band) [3]: 2 (2=26-49%) | Cell Score @ 1 uM (percent decrease in trk protein band) [3]: 4 (4=76-100%) | IC50 [1]: 59 nM

SMILES: CCOC(=O)C1C(=O)CCC1C1c2ccccc2-c2c3c(c4c([nH]c5ccccc54)c21)C(=O)NC3=O (single isomer, unassigned) [II-56]
trkA kinase activity % Inh. @ 300 nM (values in parentheses) ([1]; 300 nM compound): (12) %

SMILES: O=C1NCc2c1c1c(c3[nH]c4ccccc4c23)C(C2CCCC2)c2ccccc2-1 (single isomer, unassigned) [II-59]
trkA kinase activity % Inh. @ 300 nM (values in parentheses) ([1]; 300 nM compound): (10) %

SMILES: O=C1NCc2c1c1c(c3[nH]c4ccccc4c23)C(C2CCOC2=O)c2ccccc2-1 (single isomer, unassigned) [II-60]
VEGF receptor kinase activity % Inh. @ 300 nM (values in parentheses) [2]: (45) %

IC50 [2]: 266 nM
SMILES: O=C1NCc2c1c1c(c3c2c2ccccc2n3C[C@@H]2CO2)Cc2ccccc2-1 [II-01b]

IC50 [2]: 168 nM | IC50 [1]: 163 nM
SMILES: O=C1NCc2c1c1c(c3c2c2ccccc2n3C[C@H]2CO2)Cc2ccccc2-1 [II-01c]

IC50 [1]: 130 nM
SMILES: O=C1CCCC(C2c3ccccc3-c3c4c(c5c([nH]c6ccccc65)c32)CNC4=O)O1 (centres unmarked) [II-05]

inhibition at 0.3 µM [2]: 56% | Cell Score @ 100 nM (percent decrease in trk protein band) [3]: 1 (1=1-25%) | Cell Score @ 1 uM (percent decrease in trk protein band) [3]: 2 (2=26-49%) | IC50 [1]: 90 nM
SMILES: O=C1CCC(C2c3ccccc3-c3c4c(c5c([nH]c6ccccc65)c32)CNC4=O)O1 (centres unmarked) [II-06]

IC50 [1]: 134 nM
SMILES: O=C1NCc2c1c1c(c3[nH]c4ccccc4c23)C(C2(c3cccs3)CCCO2)c2ccccc2-1 (centres unmarked) [II-09]

IC50 [1]: 139 nM
SMILES: O=C1NCc2c1c1c(c3[nH]c4ccccc4c23)C(C2CSCC2O)c2ccccc2-1 (centres unmarked) [II-11]

IC50 [1]: 241 nM
SMILES: CC1(C2c3ccccc3-c3c4c(c5c([nH]c6ccccc65)c32)CNC4=O)CCCCO1 (centres unmarked) [II-12]

IC50 [1]: 186 nM
SMILES: O=C1NCc2c1c1c(c3[nH]c4ccccc4c23)C(C2CCCCO2)c2ccccc2-1 (centres unmarked) [II-13]

SMILES: O=C1NCc2c1c1c(c3[nH]c4ccccc4c23)C(C2(O)CCC2)c2ccccc2-1 (centres unmarked) [II-18]
trkA kinase activity % Inh. @ 300 nM (values in parentheses) ([1]; 300 nM compound): (45) %

inhibition at 0.3 µM [2]: 46% | IC50 [1]: 162 nM
SMILES: O=C1NCc2c1c1c(c3[nH]c4ccccc4c23)C(C2(CCCCl)CCCO2)c2ccccc2-1 (centres unmarked) [II-19]

IC50 [1]: 95 nM
SMILES: CC(=O)OCC1(C2c3ccccc3-c3c4c(c5c([nH]c6ccccc65)c32)CNC4=O)CCCO1 (centres unmarked) [II-22]

SMILES: CC(=O)N1CCC(O)(C2c3ccccc3-c3c4c(c5c([nH]c6ccccc65)c32)CNC4=O)CC1 (centres unmarked) [II-24]
trkA kinase activity % Inh. @ 300 nM (values in parentheses) ([1]; 300 nM compound): (34) %

IC50 [1]: 166 nM
SMILES: CC1(C2c3ccccc3-c3c4c(c5c([nH]c6ccccc65)c32)CNC4=O)CC(=O)CO1 (centres unmarked) [II-27]

IC50 [1]: 138 nM
SMILES: C=CC1(C2c3ccccc3-c3c4c(c5c([nH]c6ccccc65)c32)CNC4=O)CCCO1 (centres unmarked) [II-28]

IC50 [1]: 191 nM
SMILES: CC1(C2c3ccccc3-c3c4c(c5c([nH]c6ccccc65)c32)C(=O)NC4)CCCO1 (centres unmarked) [II-37]

IC50 [1]: 54 nM
SMILES: CCOC1CCC(C2c3ccccc3-c3c4c(c5c([nH]c6ccccc65)c32)CNC4=O)O1 (centres unmarked) [II-40a]

IC50 [2]: 1420 nM | IC50 [1]: 59 nM
SMILES: CCOC1CCC(C2c3ccccc3-c3c4c(c5c([nH]c6ccccc65)c32)CNC4=O)O1 (centres unmarked) [II-40b]

IC50 [2]: > 1000 nM | IC50 [1]: 80 nM
SMILES: O=C1NCc2c1c1c(c3[nH]c4ccccc4c23)C(C2(CCl)CCCO2)c2ccccc2-1 (centres unmarked) [II-44]

IC50 [1]: 321 nM
SMILES: O=C1CCC(C2c3ccccc3-c3c4c(c5c([nH]c6ccccc65)c32)CNC4=O)=NN1 (centres unmarked) [II-49]

IC50 [1]: 113 nM
SMILES: O=C1NCc2c1c1c(c3[nH]c4ccccc4c23)C(C2(O)CCCCC2)c2ccccc2-1 (centres unmarked) [II-50]

SMILES: CCOC1COCC(C)(C2c3ccccc3-c3c4c(c5c([nH]c6ccccc65)c32)CNC4=O)O1 (centres unmarked) [II-51a]
IC50 [2]: 170 nM | inhibition at 0.3 µM ([1]; 300 nM compound, read-out: trkA kinase activity % Inh. @ 300 nM (values in parentheses)): 56%

— patent US6841567B1, “Cyclic substituted fused pyrrolocarbazoles and isoindolones” (Cephalon, Inc., priority 1999, dated 2005)
